According to the supplement of paper PMC11061612:

How the values were obtained:
Assay in all cases: combination Emax (second highest fraction inhibited in the dose matrix, 72 h); higher = more inhibition; extreme values may be limits of the assay
[1] = system: TK10 (Kidney Carcinoma)
Summary of the method: (§1)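 Bliss excess equals the observed combination effect minus the expected value EA + EB − EA·EB, where EA and EB are the effects of each agent alone. Combination Emax is the second-highest inhibition within the matrix. Inhibition was scaled from CellTiter-Glo 2.0 luminescence, with 0 set by vehicle wells and 1 by blank wells, after 72 hours of two-drug dosing of cells plated in 1536-well plates.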

[2] = system: NCI-H727 (Other Solid Carcinomas)
Summary of the method: as §1

[3] = system: MIA-PaCa-2 (Pancreatic Carcinoma)
Summary of the method: as §1

[4] = system: Caov-4 (Ovarian Carcinoma)
Summary of the method: as §1

[5] = system: PANC-04-03 (Pancreatic Carcinoma)
Summary of the method: as §1

[6] = system: D-263MG (Glioblastoma)
Summary of the method: as §1

[7] = system: MLMA (Other Blood Carcinomas)
Summary of the method: as §1

[8] = system: TGW (Neuroblastoma)
Summary of the method: as §1

[9] = system: BT-549 (Breast Carcinoma)
Summary of the method: as §1

[10] = system: YH-13 (Glioblastoma)
Summary of the method: as §1

[11] = system: Ca9-22 (Head and Neck Carcinoma)
Summary of the method: as §1

[12] = system: NB69 (Neuroblastoma)
Summary of the method: as §1

[13] = system: EFM-19 (Breast Carcinoma)
Summary of the method: as §1

SMILES | combination Emax [1] | combination Emax [2] | combination Emax [3] | combination Emax [4] | combination Emax [5] | combination Emax [6] | combination Emax [7] | combination Emax [8] | combination Emax [9] | combination Emax [10] | combination Emax [11] | combination Emax [12] | combination Emax [13]
O=C(c1cc(Cc2n[nH]c(=O)c3ccccc23)ccc1F)N1CCN(C(=O)C2CC2)CC1 [Olaparib] + CC1(C)CCC(CN2CCN(c3ccc(C(=O)NS(=O)(=O)c4ccc(NCC5CCOCC5)c([N+](=O)[O-])c4)c(Oc4cnc5[nH]ccc5c4)c3)CC2)=C(c2ccc(Cl)cc2)C1 [Venetoclax] (first compound max 10 µM, 7x7, partner max 1 µM) | 0.0731 | 0.119 | 0.209 | 0.137 | 0.176 | 0.0634 | 0.265 | 0.429 | 0.18 | 0.195 | 0.229 | 0.643 | 0.194
Cc1c2c(nn1C)CSCc1cc(n(C)n1)CSc1cc(c3ccccc3c1)OCCCc1c(C(=O)O)n(C)c3c-2c(Cl)ccc13 [AZD5991] + CC(=O)O[C@H]1C(=O)[C@@]2(C)[C@H]([C@H](OC(=O)c3ccccc3)[C@]3(O)C[C@H](OC(=O)[C@H](O)[C@@H](NC(=O)c4ccccc4)c4ccccc4)C(C)=C1C3(C)C)[C@]1(OC(C)=O)CO[C@@H]1C[C@@H]2O [Paclitaxel] (first compound max 1 µM, 7x7, partner max 3 µM) | 0.519 | 0.136 | 0.807 | 0.833 | 0.52 | 1 | 0.872 | 0.955 | 0.864 | 0.994 | 0.963 | 1 | 0.931
O=C(c1cc(Cc2n[nH]c(=O)c3ccccc23)ccc1F)N1CCN(C(=O)C2CC2)CC1 [Olaparib] + COc1nnc2ccc(N3CCC(c4ccc(OCCN5CCN(C)C(=O)[C@H]5C)cc4)CC3)nn12 [AZD5153] (first compound max 10 µM, 7x7, partner max 1 µM) | 0.482 | 0.288 | 0.852 | 0.456 | 0.52 | 0.343 | 0.83 | 0.476 | 0.462 | 0.556 | 0.625 | 0.959 | 0.367
C[C@@H](Oc1cc(-c2cnn(C3CCNCC3)c2)cnc1N)c1c(Cl)ccc(F)c1Cl [Crizotinib] + CC1=C(C(=CC=C1)Cl)NC(=O)C2=CN=C(S2)NC3=CC(=NC(=N3)C)N4CCN(CC4)CCO [Dasatinib] (first compound max 10 µM, 7x7, partner max 2 µM) | 0.826 | 0.79 | 0.608 | 0.414 | 0.529 | 0.843 | 0.529 | 0.677 | 0.679 | 0.978 | 0.952 | 0.951 | 0.636
C=CCn1c(=O)c2cnc(Nc3ccc(N4CCN(C)CC4)cc3)nc2n1-c1cccc(C(C)(C)O)n1 [AZD1775] + CCc1c2c(nc3ccc(O)cc13)-c1cc3c(c(=O)n1C2)COC(=O)[C@]3(O)CC [SN-38] (first compound max 1 µM, partner max 0.3 µM) | 0.612 | 0.514 | 0.969 | 0.905 | 0.617 | 0.641 | 0.786 | 0.728 | 0.857 | 0.741 | 0.965 | 0.997 | 0.743
C[C@@H](Oc1cc(-c2cnn(C3CCNCC3)c2)cnc1N)c1c(Cl)ccc(F)c1Cl [Crizotinib] + Cn1cnc2c(F)c(Nc3ccc(Br)cc3Cl)c(C(=O)NOCCO)cc21 [Selumetinib] (first compound max 10 µM, 7x7, partner max 10 µM) | 0.367 | 0.958 | 0.763 | 0.552 | 0.631 | 0.308 | 0.491 | 0.69 | 0.38 | 0.446 | 0.542 | 1 | 0.224
Cc1c2c(nn1C)CSCc1cc(n(C)n1)CSc1cc(c3ccccc3c1)OCCCc1c(C(=O)O)n(C)c3c-2c(Cl)ccc13 [AZD5991] + CS(=O)(=O)CCNCc1ccc(-c2ccc3ncnc(Nc4ccc(OCc5cccc(F)c5)c(Cl)c4)c3c2)o1 [Lapatinib] (first compound max 1 µM, 7x7, partner max 10 µM) | 0.56 | 0.299 | 0.496 | 0.891 | 0.343 | 0.458 | 0.232 | 0.312 | 0.412 | 0.186 | 0.933 | 0.902 | 0.364
C[C@@H](Nc1cc(F)cc(F)c1)c1cc(C(=O)N(C)C)cc2c(=O)cc(N3CCOCC3)oc12 [AZD8186] + CC(=O)c1c(C)c2cnc(Nc3ccc(N4CCNCC4)cn3)nc2n(C2CCCC2)c1=O [Palbociclib] (first compound max 10 µM, 7x7, partner max 10 µM) | 0.556 | 0.362 | 0.471 | 0.29 | 0.344 | 0.355 | 0.847 | 0.32 | 0.392 | 0.692 | 0.368 | 0.927 | 0.449
Cc1nc(-c2cn3c(n2)-c2ccc(-c4cnn(C(C)(C)C(N)=O)c4)cc2OCC3)n(C(C)C)n1 [Taselisib] + O=C(Nc1ccc2[nH]nc(-c3ccncc3)c2c1)[C@@H]1CCN(CC(=O)N2CCN(c3ccc(-c4ncccn4)cc3)CC2)C1 [SCH772984] (first compound max 10 µM, 7x7, partner max 5 µM) | 0.773 | 0.958 | 0.797 | 0.763 | 0.905 | 0.892 | 0.561 | 0.516 | 0.501 | 0.932 | 0.938 | 0.997 | 0.693
C=CCn1c(=O)c2cnc(Nc3ccc(N4CCN(C)CC4)cc3)nc2n1-c1cccc(C(C)(C)O)n1 [AZD1775] + Nc1ccn([C@@H]2O[C@H](CO)[C@@H](O)C2(F)F)c(=O)n1 [Gemcitabine] (first compound max 1 µM, partner max 0.3 µM) | 0.456 | 0.392 | 0.947 | 0.837 | 0.526 | 0.622 | 0.815 | 0.809 | 0.827 | 0.662 | 0.834 | 1 | 0.614
C[C@@H](Nc1cc(F)cc(F)c1)c1cc(C(=O)N(C)C)cc2c(=O)cc(N3CCOCC3)oc12 [AZD8186] + C1CN(CCC1(C(=O)N[C@@H](CCO)C2=CC=C(C=C2)Cl)N)C3=NC=NC4=C3C=CN4 [AZD5363] (first compound max 10 µM, 7x7, partner max 10 µM) | 0.454 | 0.411 | 0.258 | 0.309 | 0.275 | 0.284 | 0.623 | 0.258 | 0.343 | 0.644 | 0.296 | 0.659 | 0.432
CC1(C)CCC(CN2CCN(c3ccc(C(=O)NS(=O)(=O)c4ccc(NCC5CCOCC5)c([N+](=O)[O-])c4)c(Oc4cnc5[nH]ccc5c4)c3)CC2)=C(c2ccc(Cl)cc2)C1 [Venetoclax] + CS(=O)(=O)CCNCc1ccc(-c2ccc3ncnc(Nc4ccc(OCc5cccc(F)c5)c(Cl)c4)c3c2)o1 [Lapatinib] (first compound max 1 µM, 7x7, partner max 10 µM) | 0.516 | 0.246 | 0.272 | 0.304 | 0.291 | 0.108 | 0.117 | 0.459 | 0.249 | 0.0901 | 0.777 | 0.598 | 0.207
CN(CCO)CC[C@H](CSc1ccccc1)Nc1ccc(S(=O)(=O)NC(=O)c2ccc(N3CCC([C@@H](O)c4ccccc4-c4ccc(Cl)cc4)CC3)cc2)cc1S(=O)(=O)C(F)(F)F [AZD4320] + CS(=O)(=O)CCNCc1ccc(-c2ccc3ncnc(Nc4ccc(OCc5cccc(F)c5)c(Cl)c4)c3c2)o1 [Lapatinib] (first compound max 1 µM, 7x7, partner max 10 µM) | 0.92 | 0.96 | 0.832 | 0.955 | 0.313 | 0.154 | 0.497 | 1 | 0.633 | 0.603 | 0.974 | 0.983 | 0.846
C[C@@H]1COCCN1c1cc(C2([S@](C)(=N)=O)CC2)nc(-c2ccnc3[nH]ccc23)n1 [AZD6738] + Nc1ccn([C@@H]2O[C@H](CO)[C@@H](O)C2(F)F)c(=O)n1 [Gemcitabine] (first compound max 10 µM, 7x7, partner max 0.3 µM) |  | 0.526 | 0.947 | 0.894 | 0.627 | 0.738 | 0.794 | 0.897 | 0.797 | 0.865 | 0.923 | 1 | 0.795
CS(=O)(=O)CCNCc1ccc(-c2ccc3ncnc(Nc4ccc(OCc5cccc(F)c5)c(Cl)c4)c3c2)o1 [Lapatinib] + Cn1cnc2c(F)c(Nc3ccc(Br)cc3Cl)c(C(=O)NOCCO)cc21 [Selumetinib] (first compound max 10 µM, 7x7, partner max 10 µM) | 0.605 | 0.631 | 0.57 | 0.694 | 0.77 | 0.259 | 0.316 | 0.207 | 0.32 | 0.209 | 0.845 | 0.916 | 0.289
O=C(c1cc(Cc2n[nH]c(=O)c3ccccc23)ccc1F)N1CCN(C(=O)C2CC2)CC1 [Olaparib] + CN(CC[C@H](CSC1=CC=CC=C1)NC2=C(C=C(C=C2)S(=O)(=O)NC(=O)C3=CC=C(C=C3)N4CCC(CC4)[C@H](C5=CC=CC=C5C6=CC=C(C=C6)Cl)O)S(=O)(=O)C(F)(F)F)CCO [AZD4320] (first compound max 10 µM, 7x7, partner max 1 µM) | 0.128 | 0.433 | 0.184 | 0.181 | 0.121 | 0.0474 | 0.519 | 0.925 | 0.217 | 0.401 | 0.349 | 0.943 | 0.428
